In brackets after ≈: the same amount, converted by molar mass.
Key:
Assay type in all cases: functional
[1] = test system: Escherichia coli; assay: Antibacterial activity against Escherichia coli
[2] = test system: Staphylococcus aureus; assay: Antibacterial activity against Staphylococcus aureus
[3] = test system: Candida albicans; assay: Antifungal activity against Candida albicans
[4] = test system: Bacillus subtilis; assay: Antibacterial activity against Bacillus subtilis
[5] = test system: Pseudomonas aeruginosa; assay: Antibacterial activity against Pseudomonas aeruginosa
[6] = test system: Escherichia coli; assay: Antibacterial activity against Escherichia coli ATCC 25922 after 24 hrs; conditions: ATCC 25922, 24 h
[7] = test system: Pseudomonas aeruginosa; assay: Antibacterial activity against Pseudomonas aeruginosa after 24 hrs
[8] = test system: Staphylococcus aureus; assay: Antibacterial activity against Staphylococcus aureus ATCC 29213 after 24 hrs; conditions: ATCC 29213, 24 h
[9] = test system: Klebsiella pneumoniae; assay: Antibacterial activity against Klebsiella pneumoniae after 24 hrs
[10] = test system: Staphylococcus aureus; assay: Antibacterial activity against Staphylococcus aureus ATCC 25923 after 24 hrs; conditions: ATCC 25923, 24 h
[11] = test system: Staphylococcus aureus; assay: Antibacterial activity against methicillin-resistant Staphylococcus aureus after 24 hrs
[12] = test system: Enterococcus faecalis; assay: Antibacterial activity against Enterococcus faecalis after 24 hrs
[13] = test system: Pseudomonas aeruginosa; assay: Antibacterial activity against Pseudomonas aeruginosa ATCC 27853 after 24 hrs; conditions: ATCC 27853, 24 h
[14] = test system: Pseudomonas aeruginosa; assay: Antibacterial activity against Pseudomonas aeruginosa ATCC 27853
[15] = test system: Enterococcus faecalis; assay: Antibacterial activity against Enterococcus faecalis
[16] = test system: Staphylococcus aureus; assay: Antibacterial activity against Staphylococcus aureus ATCC 29213
[17] = test system: Klebsiella pneumoniae; assay: Antibacterial activity against Klebsiella pneumoniae
[18] = test system: Acinetobacter baumannii; assay: Antibacterial activity against Acinetobacter baumannii
[19] = test system: Staphylococcus aureus; assay: Antibacterial activity against methicillin-resistant Staphylococcus aureus N315
[20] = test system: Staphylococcus aureus; assay: Antibacterial activity against Staphylococcus aureus ATCC 25923
[21] = test system: Escherichia coli; assay: Antibacterial activity against Escherichia coli ATCC 25922

| SMILES | MIC [1] | MIC [2] [µg/mL] | MIC [3] [µg/mL] | MIC [4] [µg/mL] | MIC [5] | MIC [6] [µM] | MIC [7] [µM] | MIC [8] [µM] | MIC [9] [µM] | MIC [10] [µM] | MIC [11] [µM] | MIC [12] [µM] | MIC [13] [µM] | other results |
| --- | --- | --- | --- | --- | --- | --- | --- | --- | --- | --- | --- | --- | --- | --- |
| CC(=O)N1N=C(Cn2c([N+](=O)[O-])cnc2C)OC1(C)c1ccc(C)cc1 (stereo unspecified) | 0.25 to 0.5 µg/mL | 0.25 to 0.5 (≈ 0.7 to 1.4 µM) | 0.25 to 0.5 (≈ 0.7 to 1.4 µM) | 0.25 to 0.5 (≈ 0.7 to 1.4 µM) | 0.25 to 0.5 µg/mL |  |  |  |  |  |  |  |  |  |
| CCCCCCOc1c(OC)cc(/C=C(\C#N)n2cc([N+](=O)[O-])nc2C)c2c1CN1CCc3cc4c(cc3C1C2)OCO4 (stereo unspecified) |  |  |  |  |  | 3 to 1020 (≈ 1.76 to 598 µg/mL) | 3 to 1020 (≈ 1.76 to 598 µg/mL) | 3 to 1020 (≈ 1.76 to 598 µg/mL) | 3 to 1020 (≈ 1.76 to 598 µg/mL) | 3 to 1020 (≈ 1.76 to 598 µg/mL) | 3 to 1020 (≈ 1.76 to 598 µg/mL) | 3 to 1020 (≈ 1.76 to 598 µg/mL) | 3 to 1020 (≈ 1.76 to 598 µg/mL) |  |
| NC(=O)N/N=C/c1ccc([N+](=O)[O-])o1 [NITROFURAZONE] | 0.25 to 0.5 µg/mL | 0.25 to 0.5 (≈ 1.26 to 2.52 µM) | 0.25 to 0.5 (≈ 1.26 to 2.52 µM) | 0.25 to 0.5 (≈ 1.26 to 2.52 µM) | 0.25 to 0.5 µg/mL |  |  |  |  |  |  |  |  |  |
| CCCCCCCCN1CCN(c2ccc3c4c(cccc24)C(=O)N(CC(O)Cn2c([N+](=O)[O-])cnc2C)C3=O)CC1 (stereo unspecified) | 13 to 1020 µM |  |  |  | 13 to 1020 µM |  |  |  |  |  |  |  |  | MIC [14]: 13 to 1020 µM (≈ 7.5 to 588 µg/mL); MIC [15]: 13 to 1020 µM (≈ 7.5 to 588 µg/mL); MIC [16]: 13 to 1020 µM (≈ 7.5 to 588 µg/mL); MIC [17]: 13 to 1020 µM (≈ 7.5 to 588 µg/mL); MIC [18]: 13 to 1020 µM (≈ 7.5 to 588 µg/mL); MIC [19]: 13 to 1020 µM (≈ 7.5 to 588 µg/mL); MIC [20]: 13 to 1020 µM (≈ 7.5 to 588 µg/mL); MIC [21]: 13 to 1020 µM (≈ 7.5 to 588 µg/mL) |
| CCCCOc1c(OC)cc(/C=C(\C#N)n2cc([N+](=O)[O-])nc2C)c2c1CN1CCc3cc4c(cc3C1C2)OCO4 (stereo unspecified) |  |  |  |  |  | 3 to 1020 (≈ 1.67 to 569 µg/mL) | 3 to 1020 (≈ 1.67 to 569 µg/mL) | 3 to 1020 (≈ 1.67 to 569 µg/mL) | 3 to 1020 (≈ 1.67 to 569 µg/mL) | 3 to 1020 (≈ 1.67 to 569 µg/mL) | 3 to 1020 (≈ 1.67 to 569 µg/mL) | 3 to 1020 (≈ 1.67 to 569 µg/mL) | 3 to 1020 (≈ 1.67 to 569 µg/mL) |  |
| COc1ccc(C2(C)OC(Cn3c([N+](=O)[O-])cnc3C)=NN2C(C)=O)cc1 (stereo unspecified) | 0.25 to 0.5 µg/mL | 0.25 to 0.5 (≈ 0.67 to 1.34 µM) | 0.25 to 0.5 (≈ 0.67 to 1.34 µM) | 0.25 to 0.5 (≈ 0.67 to 1.34 µM) | 0.25 to 0.5 µg/mL |  |  |  |  |  |  |  |  |  |
| C=CCOc1c(OC)cc(/C=C(\C#N)n2cc([N+](=O)[O-])nc2C)c2c1CN1CCc3cc4c(cc3C1C2)OCO4 (stereo unspecified) |  |  |  |  |  | 3 to 1020 (≈ 1.62 to 553 µg/mL) | 3 to 1020 (≈ 1.62 to 553 µg/mL) | 3 to 1020 (≈ 1.62 to 553 µg/mL) | 3 to 1020 (≈ 1.62 to 553 µg/mL) | 3 to 1020 (≈ 1.62 to 553 µg/mL) | 3 to 1020 (≈ 1.62 to 553 µg/mL) | 3 to 1020 (≈ 1.62 to 553 µg/mL) | 3 to 1020 (≈ 1.62 to 553 µg/mL) |  |
| COc1cc(/C=C(\C#N)n2cc([N+](=O)[O-])nc2C)c2c(c1OCC(C)=O)CN1CCc3cc4c(cc3C1C2)OCO4 (stereo unspecified) |  |  |  |  |  | 3 to 1020 (≈ 1.67 to 569 µg/mL) | 3 to 1020 (≈ 1.67 to 569 µg/mL) | 3 to 1020 (≈ 1.67 to 569 µg/mL) | 3 to 1020 (≈ 1.67 to 569 µg/mL) | 3 to 1020 (≈ 1.67 to 569 µg/mL) | 3 to 1020 (≈ 1.67 to 569 µg/mL) | 3 to 1020 (≈ 1.67 to 569 µg/mL) | 3 to 1020 (≈ 1.67 to 569 µg/mL) |  |
| NC[C@H]1O[C@H](O[C@H]2[C@H](O)[C@@H](O[C@H]3O[C@H](CO)[C@@H](O)[C@H](N)[C@H]3O)[C@H](N)C[C@@H]2N)[C@H](O)[C@@H](O)[C@@H]1O [KANAMYCIN] | 1.56 to 3.12 µg/mL | 1.56 to 3.12 (≈ 3.22 to 6.44 µM) |  | 1.56 to 3.12 (≈ 3.22 to 6.44 µM) | 1.56 to 3.12 µg/mL |  |  |  |  |  |  |  |  |  |

— ChEMBL document CHEMBL4304773, “Nitroimidazole-containing compounds and their antibacterial and antitubercular activities” (2019)
